For four molecules, Ki and IC50 results are on record in patent US9745328B2, “Flap modulators” (JANSSEN PHARMACEUTICA NV, priority 2013, dated 2017).

In one assay the target is human FLAP (Homo sapiens (Human), UniProt P20292). The experiment in a line: FLAP binding assay (HTRF format). The gist of the method: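 Read-out is the HTRF ratio. Each reported figure averages two assay plates on which samples were tested in duplicate.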
A general note: TR-FRET usually uses a lanthanide donor and a delayed reading to cut background.

Assay [1] concerns leukotriene pathway in human whole blood (LTB4). The experiment in a line: Human whole blood assay (LTB4 levels after calcium ionophore A23187 stimulation). It counts as cell-based. In outline:
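Heparinised human whole blood diluted 1:1 in RPMI, pre-incubated 15 min at 37° Celsius with compound, then stimulated with A23187 (7 μg/mL) for 30 min at 37° Celsius. Plasma LTB4 measured by immunoassay kit; IC50 from 4-parameter fit; single replicate per plate, at least one healthy donor.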

The mark [2] stands for this setting: human FLAP wild type, Table 6 (additional runs).
Where [3] appears, read: Homo sapiens, human whole blood diluted 1:1, A23187 stimulation; Table 6 (additional runs); read-out: Human Whole Blood LTB4 IC50 1:1.

Structures can show the parent of a compound that is named as a salt. Where two headings read alike, the source gives them in different places.

human FLAP, sequence (P20292 whole entry): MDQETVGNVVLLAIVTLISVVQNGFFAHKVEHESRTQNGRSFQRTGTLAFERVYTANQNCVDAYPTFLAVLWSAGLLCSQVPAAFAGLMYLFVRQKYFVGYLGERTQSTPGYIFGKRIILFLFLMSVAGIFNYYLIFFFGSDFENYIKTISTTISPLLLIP

For orientation: Ki means the dissociation constant of the complex between target and ligand, obtained from inhibition or displacement. Broadly, the IC50 is the concentration at which inhibition is half-maximal. In the case of `N#CCn1cc(-c2ccccc2-c2ccc(-c3cnc(N)cn3)c(F)c2)cn1` [Example 871, {4-[4′-(5-Aminopyrazin-2-yl)-3′-fluorobiphenyl-2-yl]-1H-pyrazol-1-yl}acetonitrile], the affinity on human FLAP (setting [2]), expressed as Ki, was 25 nM. Moreover, the IC50 in assay [1] (setting [3]) is 371 nM.
For `CC(=O)N1CCC(S(=O)(=O)c2ncccc2-c2ccc(-c3cnc(N)cn3)c(F)c2)CC1` [Example 816, 1-((3-(4-(2-Aminopyrazin-5-yl)-3-fluorophenyl)pyridine-2-yl)sulfonyl)piperidin-1-yl)ethanone hydrogen chloride salt], in that order: 37 nM and 61 nM.
Turning to `Nc1cnc(-c2ccc(-c3ccccc3S(=O)(=O)N[C@@H]3c4ccccc4C[C@H]3O)cc2F)cn1` [Example 159, 4′-(5-aminopyrazin-2-yl)-3′-fluoro-N-((1R,2R)-2-hydroxy-2,3-dihydro-1H-inden-1-yl)-[1,1′-biphenyl]-2-sulfonamide], the affinity at human FLAP (Table 6 (additional runs), human FLAP wild type), expressed as Ki, was 0.8 nM. In assay [1] (Homo sapiens, Table 6 (additional runs); human whole blood diluted 1:1, A23187 stimulation; read-out: Human Whole Blood LTB4 IC50 1:1), the IC50 came out at 1.3 nM.
On to `CC(C)S(=O)(=O)c1nc(C(F)(F)F)ccc1-c1ccc(-c2cnc(N)cn2)c(F)c1` [Example 901, 5-(2-Fluoro-4-{2-[(1-methylethyl)sulfonyl]-6-(trifluoromethyl)pyridin-3-yl}phenyl)pyrazin-2-amine], for which affinity on human FLAP (setting [2]) was put at a Ki of 1.8 nM. In assay [1] (setting [3]), the IC50 is 1.6 nM.
